Several values for one entry are separate records, joined by “and”; a condition that tells them apart may be missing. Equal entries are not always repeated. Marks after values point to notes of the source that are not given here.

In the data set the test system is Caco-2 cell monolayer. In words: Caco-2 monolayer transport (bioavailability) study, AB and BA directions. The class given is in vitro ADME, Homo sapiens. The following applies: for detection at the acceptor side of the Caco-2 cell monolayer: AB and BA experiments; for Apical Side 0 min / Apical Side 75 min / Apical Side 90 min / Apical Side 115 min / Apical Side 180 min / reduction in concentration on the apical (donor) side: AB experiment; for Apical Side 0 min / Apical Side 75 min / Apical Side 90 min / Apical Side 115 min / Apical Side 180 min / Basolateral Side 0 min / Basolateral Side 75 min / Basolateral Side 90 min / Basolateral Side 115 min / Basolateral Side 180 min: donor side; for Basolateral Side 0 min / Basolateral Side 75 min / Basolateral Side 90 min / Basolateral Side 115 min / Basolateral Side 180 min / reduction in concentration on the basolateral (donor) side: BA experiment; for reduction in concentration on the apical (donor) side / reduction in concentration on the basolateral (donor) side: 0 to 180 min. The procedure:
A reversed phase C18 column (Luna 5 μm C18(2) 100 Å, LC Column 250 × 4.6 mm, Phenomenex) was used to separate the polyphenols at a flow rate of 0.7 mL/min with an injection volume of 60 µL. The detection was carried out at 520 nm for anthocyanins (M3G, D3G and Pet3G), at 328 nm for CA, at 356 nm for flavonols (Q3G, K3Gal and K3G) and at 280 nm for GA and SA. The mobile phases were (A) acetonitrile 100% and (B) water 0.1% trifluoroacetic acid (v/v). The gradient was programmed as follows: 10% A 0 min, 10–80% A (0–20 min), 80–100% A (20–25 min), 100% A (25–30 min); 10% A (30–35 min) and 10% A (35–40 min). Every polyphenol was quantified using the corresponding reference standard calibration curve. Each of the quantified phenolic compound concentration was expressed as mg/mL
For the transport experiment Caco-2 cells were cultured at a density of 4 × 10^4 cells/cm^2 in Transwell inserts (12 mm i.d., 1.12 cm^2 growth area, 0.4 µm mean pore size polycarbonate membranes, Corning Inc., Milwaukee, WI, USA) placed in 12-well plates. Caco-2 cells were grown in DMEM in an incubator at 37 °C in a humidified atmosphere containing 5% CO2.
Bioavailability studies were performed in triplicate after 21 days of cell growth. Only inserts with stable TEER values higher than ≥300 Ω cm^2 were considered acceptable to perform the bioavailability study. For that purpose, DMEM media was removed, the monolayer was washed with PBS and HBSS was supplied to the cells.
Likewise, the GSE stock solution was diluted in HBSS medium to prepare GSE solutions S1 and S2. GSE solutions S1 and S2 had concentrations of 15 mg/mL and 22 mg/mL, respectively. These concentrations were established considering previous studies with grape pomace extracts that concluded that intestinal concentrations of 1–2% (w/v) show potential bioactivities and are safe to be used as a food ingredient.
The apical side represents the intestinal lumen and the basolateral side represents the bloodstream. Each sample (100 µL) was immediately acidified with 1M HCl to a final concentration of 0.007 M and subsequently frozen at −20 °C until analysis by HPLC (according to the method described in Section 2.5). Each experiment was carried out on 3 individual wells. The transport efficiency (TE) percentage was calculated according to Equation (2):Transport efficiency (%) = (C/C0) × 100(2) where, C is the polyphenol concentration at the acceptor side over time and C0 is the initial concentration at the donor side. TE values were calculated for the nine polyphenols identified in the grape skin extract.
The apparent permeability coefficient (Papp) of the polyphenols in GSE was calculated for apical to basolateral side (AB) and basolateral to apical side (BA) flux studies according to Equation (3):Papp (cm/s) = (dQ/dt) × (VR/AC0)(3) where, dQ/dt is the permeability rate which means the steady-state linear rate of change of concentration (mg/L) per second (s) at the acceptor side; A is the surface area of the cell monolayer (1.12 cm^2). C0 is the initial concentration at the donor side (mg/L) at t = 0 s and VR is the volume of the solution of the acceptor side (mL).
The efflux ratio (ER) of the polyphenol was assessed by calculating the Equation (4):ER = Papp (BA)/Papp (AB)(4) where, Papp (BA) is the apparent permeability coefficient of the polyphenol from basolateral to apical side and Papp (AB) is the apparent permeability coefficient from apical to basolateral side. ER is a measure of the relative contributions of active and passive transport to bi-direction flux across the cell monolayer.
(In general: Passage across Caco-2 layers is used to estimate intestinal permeability.)

In the case of `COc1cc(-c2[o+]c3cc(O)cc(O)c3cc2O[C@@H]2O[C@H](CO)[C@@H](O)[C@H](O)[C@H]2O)cc(O)c1O` [Pet3G, petunidin-3-O-glucoside], the “detection at the acceptor side of the Caco-2 cell monolayer” value (“detection … of the Caco-2 cell monolayer” below) is “not detected”. For the setting “S1 (15 mg/mL GSE)”, the “Apical Side 0 min” value is 1.8 ± 0.1 ^a mg/L, the “Apical Side 75 min” value is on record as 1.4 ± 0.1 ^b mg/L, the “Apical Side 90 min” value is 1.2 ± 0.1 ^c mg/L and the “Apical Side 115 min” value is on record as 1.02 ± 0.10 ^c,d mg/L. Also, under “S1 (15 mg/mL GSE)”, the “Apical Side 180 min” value is reported as 0.9 ± 0.1 ^d mg/L, the “Basolateral Side 0 min” value is recorded as 4.3 ± 0.1 ^a mg/L, the “Basolateral Side 75 min” value is recorded as 4.0 ± 0.1 ^b mg/L and the “Basolateral Side 90 min” value was 3.8 ± 0.1 ^b,c mg/L. In addition, where the note is “S1 (15 mg/mL GSE)”, the “Basolateral Side 115 min” value is on record as 3.65 ± 0.09 ^c,d mg/L and the “Basolateral Side 180 min” value is given as 3.49 ± 0.08 ^d mg/L. In addition, for the setting “S2 (22 mg/mL GSE)”, the “Apical Side 0 min” value is on record as 4.4 ± 0.2 ^a mg/L, the “Apical Side 75 min” value was 4.0 ± 0.1 ^b mg/L, the “Apical Side 90 min” value is on record as 3.7 ± 0.1 ^c mg/L and the “Apical Side 115 min” value is 3.33 ± 0.09 ^c mg/L. Also, where the note is “S2 (22 mg/mL GSE)”, the “Apical Side 180 min” value is on record as 3.16 ± 0.08 ^c mg/L, the “Basolateral Side 0 min” value is recorded as 3.1 ± 0.2 ^a mg/L, the “Basolateral Side 75 min” value was 3.0 ± 0.2 ^a mg/L and the “Basolateral Side 90 min” value is given as 2.9 ± 0.2 ^a mg/L. Further, for the setting “S2 (22 mg/mL GSE)”, the “Basolateral Side 115 min” value is reported as 2.7 ± 0.2 ^a mg/L and the “Basolateral Side 180 min” value is listed as 2.7 ± 0.2 ^a mg/L.
As to `COc1cc(C(=O)O)cc(OC)c1O` [SA, syringic acid], the “detection … of the Caco-2 cell monolayer” value is listed as “not detected”. Where the note is “S1 (15 mg/mL GSE)”, the “reduction in concentration on the apical (donor) side” value came to 67 ± 4%; the “Apical Side 0 min” value is 0.70 ± 0.03 mg/L and 0.70 ± 0.03 ^a mg/L; the “Apical Side 75 min” value is 0.54 ± 0.03 ^b mg/L; the “Apical Side 90 min” value is reported as 0.42 ± 0.03 ^c mg/L. Under “S1 (15 mg/mL GSE)”, the “Apical Side 115 min” value was 0.32 ± 0.03 ^d mg/L; the “Apical Side 180 min” value is 0.23 ± 0.03 mg/L and 0.23 ± 0.03 ^c mg/L; the “Basolateral Side 0 min” value is 0.84 ± 0.08 ^a mg/L; the “Basolateral Side 75 min” value is recorded as 0.72 ± 0.07 ^a,b mg/L. Further, where the note is “S1 (15 mg/mL GSE)”, the “Basolateral Side 90 min” value was 0.63 ± 0.07 ^b,c mg/L, the “Basolateral Side 115 min” value is reported as 0.53 ± 0.06 ^c,d mg/L and the “Basolateral Side 180 min” value is given as 0.44 ± 0.06 ^d mg/L. Moreover, under “S2 (22 mg/mL GSE)”, the “reduction in concentration on the apical (donor) side” value is on record as 55 ± 2%; the “Apical Side 0 min” value was 1.48 ± 0.06 mg/L and 1.48 ± 0.06 ^a mg/L; the “Apical Side 75 min” value is 1.21 ± 0.04 ^b mg/L; the “Apical Side 90 min” value is 1.03 ± 0.03 ^c mg/L. Also, under “S2 (22 mg/mL GSE)”, the “Apical Side 115 min” value is recorded as 0.82 ± 0.02 ^d mg/L; the “Apical Side 180 min” value was 0.67 ± 0.03 mg/L and 0.67 ± 0.03 ^c mg/L; the “reduction in concentration on the basolateral (donor) side” value was determined as 23 ± 1%; the “Basolateral Side 0 min” value is 1.1 ± 0.1 ^a mg/L. Besides, for the setting “S2 (22 mg/mL GSE)”, the “Basolateral Side 75 min” value is on record as 1.10 ± 0.09 ^a,b mg/L; the “Basolateral Side 90 min” value is recorded as 1.03 ± 0.09 ^a,b,c mg/L; the “Basolateral Side 115 min” value was 0.96 ± 0.08 ^b,c mg/L; the “Basolateral Side 180 min” value is 0.90 ± 0.08 mg/L and 0.901 ± 0.08 ^c mg/L. The “detection at the acceptor side” value (BA experiments, apical side) is reported as “detected”.
Consider `OC[C@H]1O[C@@H](Oc2cc3c(O)cc(O)cc3[o+]c2-c2cc(O)c(O)c(O)c2)[C@H](O)[C@@H](O)[C@@H]1O` [D3G, delphinidin-3-O-glucoside], for which the “detection … of the Caco-2 cell monolayer” value is listed as “not detected”. Moreover, where the note is “S1 (15 mg/mL GSE)”, the “Apical Side 0 min” value was 2.1 ± 0.2 ^a mg/L, the “Apical Side 75 min” value is reported as 1.9 ± 0.2 ^a,b mg/L, the “Apical Side 90 min” value was 1.8 ± 0.1 ^b,c mg/L and the “Apical Side 115 min” value is on record as 1.6 ± 0.1 ^c mg/L. Also, for the setting “S1 (15 mg/mL GSE)”, the “Apical Side 180 min” value was 1.5 ± 0.1 ^c mg/L, the “Basolateral Side 0 min” value is 2.7 ± 0.2 ^a mg/L, the “Basolateral Side 75 min” value was 2.6 ± 0.2 ^a,b mg/L and the “Basolateral Side 90 min” value is 2.5 ± 0.2 ^b,c mg/L. Besides, for the setting “S1 (15 mg/mL GSE)”, the “Basolateral Side 115 min” value was 2.4 ± 0.2 ^b,c mg/L and the “Basolateral Side 180 min” value is listed as 2.3 ± 0.2 ^c mg/L. For the same compound, where the note is “S2 (22 mg/mL GSE)”, the “Apical Side 0 min” value is 4.7 ± 0.1 ^a mg/L, the “Apical Side 75 min” value is 4.4 ± 0.1 ^b mg/L, the “Apical Side 90 min” value was 4.3 ± 0.1 ^c mg/L and the “Apical Side 115 min” value is on record as 4.05 ± 0.09 ^c mg/L. Further, under “S2 (22 mg/mL GSE)”, the “Apical Side 180 min” value was 3.94 ± 0.08 ^c mg/L, the “Basolateral Side 0 min” value is 3.6 ± 0.2 ^a mg/L, the “Basolateral Side 75 min” value was 3.5 ± 0.2 ^a mg/L and the “Basolateral Side 90 min” value is listed as 3.4 ± 0.2 ^a mg/L. Besides, where the note is “S2 (22 mg/mL GSE)”, the “Basolateral Side 115 min” value is 3.4 ± 0.2 ^d mg/L and the “Basolateral Side 180 min” value is 3.4 ± 0.2 ^a mg/L.
As to `O=c1c(OC2O[C@H](CO)[C@H](O)[C@H](O)[C@H]2O)c(-c2ccc(O)cc2)oc2cc(O)cc(O)c12` (some centres unmarked) [K3Gal, kaempferol-3-galactoside], the “detection … of the Caco-2 cell monolayer” value is “not detected”. For the same compound, under “S1 (15 mg/mL GSE)”, the “Apical Side 0 min” value was 0.63 ± 0.02 ^a mg/L, the “Apical Side 75 min” value is recorded as 0.52 ± 0.02 ^b mg/L, the “Apical Side 90 min” value is recorded as 0.45 ± 0.02 ^c mg/L and the “Apical Side 115 min” value is listed as 0.39 ± 0.01 ^d mg/L. For the same compound, for the setting “S1 (15 mg/mL GSE)”, the “Apical Side 180 min” value was 0.35 ± 0.01 ^c mg/L; the “reduction in concentration on the basolateral (donor) side” value turned out to be 81 ± 2%; the “Basolateral Side 0 min” value was 0.26 ± 0.01 mg/L and 0.26 ± 0.01 ^a mg/L; the “Basolateral Side 75 min” value is recorded as 0.19 ± 0.01 ^b mg/L. Also, under “S1 (15 mg/mL GSE)”, the “Basolateral Side 90 min” value is recorded as 0.13 ± 0.01 ^c mg/L; the “Basolateral Side 115 min” value is on record as 0.08 ± 0.01 ^d mg/L; the “Basolateral Side 180 min” value was 0.05 ± 0.01 mg/L and 0.05 ± 0.01 ^c mg/L. In addition, where the note is “S2 (22 mg/mL GSE)”, the “Apical Side 0 min” value is recorded as 1.23 ± 0.02 ^a mg/L, the “Apical Side 75 min” value is reported as 1.09 ± 0.02 ^b mg/L, the “Apical Side 90 min” value is 1.01 ± 0.02 ^c mg/L and the “Apical Side 115 min” value is recorded as 0.88 ± 0.02 ^d mg/L. For the same compound, under “S2 (22 mg/mL GSE)”, the “Apical Side 180 min” value is 0.79 ± 0.02 ^c mg/L, the “Basolateral Side 0 min” value is recorded as 0.79 ± 0.02 ^a mg/L, the “Basolateral Side 75 min” value was 0.75 ± 0.02 ^b mg/L and the “Basolateral Side 90 min” value is 0.71 ± 0.02 ^c mg/L. Besides, where the note is “S2 (22 mg/mL GSE)”, the “Basolateral Side 115 min” value is on record as 0.67 ± 0.02 ^d mg/L and the “Basolateral Side 180 min” value is recorded as 0.64 ± 0.01 ^c mg/L.

Values taken from article PMC12248599, “Exploring the Bioavailability of Red Grape Skin Extract Polyphenols: A Caco-2 Cell Model Study” (Foods, 2025).
